The subject of data set [1] is HIV. The following applies: cited from earlier work.
Data set [2] concerns HIV. The data set is described as follows: Randomised trial of Tα1 injections versus no injections in clinically stable HIV patients; TREC response in PBMCs, lymphocyte subsets, tolerability. In kind it is in vivo, human. On the procedure: Efficacy of HIV treatment is shown by evaluating TREC response in peripheral blood mononuclear cells (PBMCs) to treatment with Tα1 plus an HIV inhibitory agent.
Twenty clinically stable patients with viral loads <400 copies/ml and CD4 counts less than 200 cells/μl were randomised to receive 3.2 mg […] subcutaneous injections twice weekly or no injections for 12 weeks. CD4 and CD8 counts, CD45 RO+ and RA+ subsets and T cell re-excision circles (TREC) in peripheral blood mononuclear cells (PBMCs) were measured every four weeks, along with regular clinical assessments and routine laboratory tests.

Ends that are not written are not given here.

On to “Thymosin α1 (SDAAVDTSSEITTKDLKEKKEVVEEAEN; not fully specified (N-terminus); ends and bridges not checked; UniProt P06454 2-29, looked up) [Tα1, 28-amino acid thymic peptide hormone with immunomodulatory properties, homologous to a natural product isolated from thymosin fraction 5 of calf thymuses]”, for which the CD4 counts entry in data set [1] (given in combination with either IL-2 or interferon-α) was “induced increases in CD4 counts”. In addition, in data set [1] (patients taking zidovudine monotherapy, contrasted with IL-2 or INF-α), the Systemic adverse reactions entry was “virtual absence of any significant systemic adverse reactions”. In addition, the “Signs of toxicity during the trial” value in data set [2] (3.2 mg subcutaneous twice weekly for 12 weeks) is “no patients taking the medication developed signs of toxicity”. The Tolerability entry in data set [2] (3.2 mg subcutaneous twice weekly for 12 weeks, 13 patients on Tα1) was “well tolerated”. In addition, the “Changes in CD4, CD8 and CD45 lymphocyte subsets versus controls” value in data set [2] (over the 12 week study period) was “did not differ between the groups”. In data set [2] (week 12), the “Mean TREC levels relative to control group” value is given as 20 times, the “Patients with detectable TREC levels versus control patients” value is listed as “far more of the Tα1 group had detectable TREC levels than control patients” and the “TREC levels in PBMCs versus controls” value was “significant increase”.

Values taken from patent US20050020495A1, “Antiretroviral compositions comprising thymosin alpha peptides and protease inhibitors” (priority 2001, published 2005).
